The values that follow come from patent US20050019746A1, “Apoptosis-related kinase/GPCRs” (EiRx Therapeutics Limited, priority 2003, published 2005).

The subject of data set [1] is PDK1 regulatory sites in S6K1 and Akt. Particulars: Ballif et al; cited from earlier work.
The test system of data set [2] is JAK3-positive leukemia cell lines DAUDI, RAMOS, LC1;19, NALM-6, MOLT-3, HL-60. The conditions noted are these: concentration-dependent, not JAK3-negative lines (Sudbeck et al); cited from earlier work.
The test system of another data set is glioblastoma cell. The conditions noted are these: Narla et al; cited from earlier work.
Data set [3] relates to human primary neutrophils. The data set can be described thus: Neutrophil apoptosis by sub G1 analysis (DNA fragmentation). The conditions noted are these: neutrophils cultured overnight with GM-CSF (65% without). It is filed as cell-based. The protocol:
Neutrophils are isolated from the blood as described in WO 02/04657 and resuspended at a concentration of 2×10^6/ml. Five hundred microlitres are pipetted into wells of a 24 well plate and incubated in the presence or absence of survival factors.
After this incubation, the neutrophils are carefully resuspended by gentle agitation and the total contents of the well are placed into an eppendorf and centrifuged@2800 rpm for 2 min@RT in a minifuge. The cell pellet is carefully resuspended in 300 μl of ice cold hypotonic fluorochrome solution (50 μg/ml Propidium Iodide, 0.1% Sodium Citrate and 0.1% Triton X-100) and placed in a fridge for 24 h@4° C.
Prepared samples are analysed with a FacsCalibre flow cytometer (Becton Dickinson) using double discrimination to ensure single cell suspension with Log Forward and Side Scatter Parameter acquisition.
Neutrophils are seeded at 2×10^6/ml in a 24 well plate in full culture medium (1 ml/well). A PI3K inhibitor (Ly294002) is added to the neutrophils to a final concentration of 20 μM prior to the addition of GM-CSF (50 units/ml). Control wells received either no GM-CSF or F GM-CSF (50 units/ml) in the absence of inhibitor. Neutrophils are cultured for 18 h at 37° C. prior to harvest and prepared for sub G1 analysis, as previously described.
Neutrophils are seeded at 2×10^6/ml in a 24 well plate in full culture medium (1 ml/well). An AKT inhibitor ([1L-6-Hydroxymethyl-chiro-inositol 2-O-methyl-3-O-octadecylcarbonate] (Calbiochem)) is added to the neutrophils to a final concentration of 20 μM and incubated for 2 h prior to the addition of GM-CSF (50 units/ml). Control wells receive either no GM-CSF or GM-CSF (50 units/ml) in the absence of inhibitor. Neutrophils are cultured for 18 h at 37° C. prior to harvest and prepared for sub G1 analysis, as previously described.

The subject of data set [4] is TF1 cells. The data set can be described thus: TF1 apoptosis by light scatter (FSC/SSC, live gate) analysis. Particulars: TF1, 48 h, with GM-CSF 2 ng/ml (35% upon factor withdrawal). The format is cell-based, human. The method, then: Light Scatter Analysis takes advantage of the fact that by using the laser beam of a flow cytometer one can determine the size (Forward Scatter) and granularity (Side Scatter) of a cell. The morphological changes associated with apoptosis, such as decreased size (shrinkage) and granularity affect these parameters. As a consequence, cells undergoing apoptosis will move to the left and slightly down, from the parameters of a healthy population.
TF1 cells are plated into 24 well plates (2×10^5/ml) and are cultured for 48 h in the presence or absence of GM-CSF (2 ng/ml). Cells are then harvested by centrifugation (1000 rpm, for 10 min) and washed in PBS. […] Forward and Side scatter parameters are assessed using Cell Quest software.
Culturing TF1 cells in the absence of GM-CSF induces cell death. This death induces morphological changes in the Forward and Side Scatter parameters that can be detected by FacsCalibre analysis. […]
To assess the antiapoptotic effect of BCL2 over-expression in TF1 cells, cells are transduced with either retrovirus expressing full length BCL2 coding sequence or control vector lacking BCL2. […] The percentage of transduced cells remaining in the live gate (an arbitrary region pre-set on a healthy population of TF1 cells grown in the presence of GM-CSF (2 ng/ml)) is recorded. An index of antiapoptotic activity is calculated by computing the difference in samples ±GMCSF. […]

Data set [5] concerns TF1 cells. Description: TF1 apoptosis by sub G1 analysis. The conditions noted are these: TF1, 48 h, with GM-CSF (approximately 55% in the absence). It is filed as cell-based, human. The protocol:
TF1 cells are cultured for 48 h in the presence or absence of GM-CSF (2 ng/ml). Cells are then harvested by centrifugation (1000 rpm, for 10 min) and washed in PBS. The pellet is resuspended in PBS (2×10^5 cells/ml) and 1 ml is then added in a dropwise fashion to ice cold 70% EtoH whilst continuously vortexing. Cells are then permeabilized by incubating at −20° C. for 24 h. To stain DNA, cells are centrifuged and washed in PBS. Cells are resuspended in 500 μl Propidium Iodide Buffer (Propidium iodide (50 μg/ml); RNAse A (50 μg/ml) for 15 min in the dark before flow cytometric analysis using a FacsCalibre (Becton Dickinson). Analysis is performed using Cell Quest software.

The subject of data set [6] is OAS1 and GBP1 mRNA in HCT15, A549, SKOV3, DU145, PC3, A498, U251 cells. The data set can be described thus: Interferon response genes mRNA by QPCR after siRNA transfection. It is filed as cell-based, human. The conditions noted are these: compared to untransfected cells. The text has this: Inhibiting gene expression using siRNA has been associated with non-specific induction of interferon from target cells (Sledz C A et al. Nat Cell Biol. September 2003; 5(9): 834-9. 2003). Since induction of interferon may possibly affect biological assays, we control for the effect of our siRNA oligonucleotides on inducing interferon. This is examined by quantitating message RNA levels for two interferon responsive genes, namely OAS1, and GBP1, both before and after siRNA transfection.
QPCR Primers, designed by MWG Biotech as described previously, are as follows.
The levels of expression of OAS1 and GBP1 in siRNA-transfected cells are expressed as a percentage of that in untransfected control cells.

A further data set deals with ELAV-1. The data set can be described thus: Validation of missense control siRNA on ELAV-1 expression. The format is cell-based. The conditions noted are these: missense control with 4 base pair mismatch substitutions. The text has this:
The missense control outlined above is designed by introducing 4 base pair mismatch substitutions into the siRNA oligo sequence for ELAV-1 (Accession number xm—008947; gi 1475941).

As for `Cc1ccc(S(=O)(=O)N[C@@H](Cc2ccccc2)C(=O)CCl)cc1` [TPCK, n-alpha-tosyl-1-phenylalanyl chloromethyl ketone], the “phosphorylation of PDK1 regulatory sites” value in data set [1] is “prevented phosphorylation of the PDK1 regulatory sites in S6K1 and Akt”.

As for `COc1cc2ncnc(Nc3ccc(O)cc3)c2cc1OC` [WHI-P131], in data set [2], the clonogenic growth result is “inhibited the clonogenic growth”. In the data set with glioblastoma cell, the “glioblastoma cell adhesion and migration” value is “potent inhibitors of glioblastoma cell adhesion and migration”.

For “GM-CSF: a 22 kDa proinflammatory cytokine; survival factor for neutrophils and TF1 cells”, the “percentage of cells with a sub G1 profile” value in data set [3] was 9.7%. Also, the “percentage of cells in the live gate” value in the data set with TF1 cells [4] was 77%. For the same compound, in the data set with TF1 cells [5], the “cells with sub-G1 profiles” value turned out to be 5%.

Turning to “siRNA MS: missense control siRNA, sense UGAGAAUGUGAUGCGCGUCTT, antisense GACGCGCAUCACAUUCUCATT (chemistry not given here)”, the “mRNA levels of interferon response genes OAS1 and GBP1” value in data set [6] (HCT15, A549, SKOV3, DU145 and U251 cells) was “does not increase mRNA levels of interferon response genes”; in data set [6] (PC3 and A498 cells) it was “Some increase in mRNA of interferon response genes”. The “expression of ELAV-1” value in the data set on ELAV-1 was “incapable of decreasing the expression ELAV-1”.
